We go through four molecules from US20160068818A1, “A METHOD FOR GENERATING INDUCED PLURIPOTENT STEM CELLS” (Glykos Finland Oy, priority 2013, published 2016).

Each structure is given as a SMILES string. Entries after “also recorded” stand apart in the source; their conditions may differ.

What all share (assay type): cell-based, human
The subject of assay [1] is hESC and hiPSC (FES 29, HEL 11.4) attachment to ECA. Nature of the assay: Validation of binding specificity: inhibition of cell attachment onto ECA. To be noted: for inhibition of cell attachment onto ECA: 100 mM in culture media, attached cells counted after 20 h; for total number of attached cells with vs without pinacidil: on ECA, counted 20 h after plating. How it is done:
Cells were passaged and plated as described earlier. The two compounds expected to act as specific binding inhibitors for ECA were lactose monohydrate (Sigma-Aldrich, 100 mM) and lacto-N-neotetraose (Kyowa Hakko Kogyo, 100 mM). Saccharose (Sigma-Aldrich, 100 mM) was used as a control. The inhibitors were added to culture media at the time of passaging and the attached cells were counted after 20 hours.
To assess the specificity of the cell-lectin interaction in supporting stem cell attachment to the growth surface, we performed inhibition experiments with specific disaccharide inhibitors and control disaccharides. […] The experiments were performed either in the presence (FIG. 4A) of absence (FIG. 4B) of pinacidil. Even if the effect of the inhibitors was similar in both conditions, the total number of attached cells was […] with pinacidil.
The attached cells were counted 20 h after plating. Data represent the mean (±SEM) of both cell lines, FES 29 and HEL 11.4. The total number of attached cells was 2-4 fold higher when Pinacidil was used (p<0.001).

Assay [2] deals with hPSC lines FES29 and HEL 11.4. Nature of the assay: Long-term culture of hPSC lines on ECA-coated plates (markers, qPCR array, karyotype). The following applies: mEF conditioned media. The method, then:
Cells were passaged by using 0.1 mg/ml collagenase IV (Invitrogen) for 5 min at +37° C. and harvested onto ECA (Sigma-Aldrich) and Matrigel (Becton Dickinson) coated plates and cultured either in StemPro® or in mEF conditioned-medium (CM) (KO-DMEM supplemented with 20% KO-SR, 2 mM Glutamax, 0.1 mM β-mercaptoethanol, 0.1 mM non-essential amino acids (NEAA), all from Invitrogen, Carlsbad, Calif., USA) and supplemented with 8 ng/ml recombinant human bFGF (Invitrogen, Carlsbad, Calif., USA). Pinacidil (Sigma-Aldrich, 100 μM) was added to culture media during passaging. In some experiments, Y-27632 (10 μM) was added to culture media during passaging. In all experiments MatrigelTM (BD Biosciences) was used as control matrix. The Matrigel plates were prepared as recommended by the manufacturer. […] Real time SYBR Green quantitative PCR (qPCR) analyses was performed with Corbett Rotor-Gene 6000 (Corbett Life Science, Sydney, Australia) using the following conditions: 95° C. […] The data was analyzed according to comparative Ct method (Applied Biosystems, User Bulletin #2). […] All samples and controls were analyzed in duplicates. […] Karyotype was detected by G-banding technique in cytogenetics laboratory of the […] […] Long-term culturing on ECA-coated plates was evaluated with hPSCs lines (FES29 and HEL 11.4) and the results were compared to the same cell lines cultured on Matrigel. […]

The test system of the next assay is hPSC cells. Nature of the assay: Clonogenicity assay on dispersed single cells. The following applies: pinacidil 100 μM during passaging.

Experimental for hPSC cells: Cells were dissociated with TrypLE for 5 minutes and passed through an 80-μm cell strainer (Becton Dickinson). Dissociated single cells from either ECA or Matrigel were seeded onto both ECA and Matrigel (35 cells/cm^2) and cultured in mouse embryonic fibroblast-conditioned medium (CM) supplemented with 8 ng/ml basic fibroblast growth factor (bFGF). Pinacidil (100 μM) was used during passaging. To evaluate clonogenic capacity, cells were alkaline phosphatase stained and colony numbers were counted 10 days after plating.
The ability of the ECA matrix to support clonogenicity of hPSC cells was studied by plating dispersed cells first adapted to ECA or Matrigel for at least two passages on either of the two matrices at the density of 35 cells/cm^2.

Consider `OC[C@H]1O[C@@](CO)(O[C@H]2O[C@H](CO)[C@@H](O)[C@H](O)[C@H]2O)[C@@H](O)[C@@H]1O` [saccharose], for which the “inhibition of cell attachment onto ECA” value in assay [1] is reported as “no inhibitory activity”.
Regarding `CC(N/C(=N\C#N)Nc1ccncc1)C(C)(C)C` (centres unmarked) [pinacidil], the “total number of attached cells with vs without pinacidil” value in assay [1] is 4 fold; in assay [1] (listed as Pinacidil), 2-4 fold. For the same molecule, the “cell attachment and morphology on ECA without/with Rho-associated kinase inhibitor during passaging” value in assay [2] was “Without pinacidil the cells did not attach as effectively”. Moreover, the “development and survival of single-cell derived clones” value with hPSC cells is listed as “highly useful”.
Take `CC(=O)N[C@H]1[C@H](O[C@H]2[C@@H](O)[C@@H](CO)O[C@@H](O[C@H]3[C@H](O)[C@@H](O)C(O)O[C@@H]3CO)[C@@H]2O)O[C@H](CO)[C@@H](O[C@@H]2O[C@H](CO)[C@H](O)[C@H](O)[C@H]2O)[C@@H]1O` (mixture of isomers) [lacto-N-neotetraose]: in assay [1], the “inhibition of cell attachment onto ECA” value is reported as “as effective as lactose; also recorded: inhibited significantly”.
`O.OC[C@H]1O[C@@H](O[C@H]2[C@H](O)[C@@H](O)C(O)O[C@@H]2CO)[C@H](O)[C@@H](O)[C@H]1O` (some centres unmarked) [Lactose, lactose monohydrate]: the “inhibition of cell attachment onto ECA” value in assay [1] (listed as lactose monohydrate, monohydrate) is listed as “inhibited significantly”; in assay [1] (monohydrate) it was “inhibited cell attachment effectively”.
